A short description of series [1]: Pharmacokinetic assay in mice, plasma concentration by LC-MS/MS. It counts as in vivo, CD-1 male mice. The conditions noted are these: male, CD-1, mouse. On the procedure:
Assay 2: Pharmacokinetic Assay by Using LC-MS/MS to Determine the Compound Concentration in Mice
Assay principle: LC-MS/MS was used to determine the drug concentration of the target drug in plasma at different times, and to plot the pharmacokinetic curve of the target compound in vivo.
An accurately weighed amount of the test compound was dissolved in 5% DMSO (INNOCHEM, INBZZHCAE) by vortex mixing. Subsequently, 10% Solutol (BASF, 75389809T0) was added and homogenized by vortexing.
Finally, 85% saline (Fengyuan, 220505102) was incorporated with vortex mixing to achieve dosing formulations at 0.4 mg/mL and 1.0 mg/mL.
The mice were sourced from CD-1 male mice (JH Laboratory Animal Co. LTD), with three mice for each group.
The mice were administered with 2 mg/kg intravenously (IV) or 10 mg/kg by oral gavage (PO). The blood samples were collected at 5 min (IV group only), 15 min, 30 min, 1 h, 2 h, 4h, 8h, and 24h (PO group only) after administration.
Approximately 30 μL blood samples were collected at each time point and placed into anticoagulant tubes containing EDTA-K2 anticoagulant. Plasma was obtained by centrifugation within 30 minutes. Whole blood samples before centrifugation were placed on wet ice. For each test compound, 42 plasma samples were collected.
All collected plasma samples were stored on dry ice or in a freezer until analysis. The drug concentration was determined using a Triple-quadrupole MS system (SCIEX), including standard curve and quality control preparation, and sample preparation.
Standard curve and quality control preparation: a working solution was prepared by ACN:H2O (1:1) dilution, and 3 μL of the above standard curve and quality control working solution was added to 57 μL of blank plasma.
Sample preparation: 7 μL of plasma sample was added to 70 μL of internal standard solution (Propranolol, Tolbutamide, Glipizide, Osalmid, each 200 ng/mL in ACN). The mixture was mixed for 5 minutes and centrifuged at 4000 rpm for 10 minutes. 50 μL of supernatant was taken and transferred to a new plate containing 200 μL ultrapure water for sample analysis.
Chromatographic conditions were optimized for each sample, regarding mobile phase composition, elution gradient conditions, flow rate, retention time, etc. The chromatographic column was Waters Acquity UPLC HSS T3 1.8 μm, 2.1×50 mm. The injection volume was 2 μL.
An electrospray ionization source was used in mass spectrometry. In the positive ion detection mode, the multi-channel reaction monitoring (MRM) mode was selected for secondary mass spectrometry analysis.
Based on the drug concentration-time data, pharmacokinetic parameters were calculated using WinNonlin 8.2 software according to a non-compartmental model, including peak concentration Cmax, peak time Tmax, area under the drug-time curve AUC, and elimination half-life t1/2. The AUC was calculated using the linear trapezoidal method (linear up log down).

A further series deals with T1, PDE4B2 (Homo sapiens, UniProt Q07343).
T1 construct: purchased BPS bioscience
T1 sequence (Q07343 1-564 isoform Q07343-2): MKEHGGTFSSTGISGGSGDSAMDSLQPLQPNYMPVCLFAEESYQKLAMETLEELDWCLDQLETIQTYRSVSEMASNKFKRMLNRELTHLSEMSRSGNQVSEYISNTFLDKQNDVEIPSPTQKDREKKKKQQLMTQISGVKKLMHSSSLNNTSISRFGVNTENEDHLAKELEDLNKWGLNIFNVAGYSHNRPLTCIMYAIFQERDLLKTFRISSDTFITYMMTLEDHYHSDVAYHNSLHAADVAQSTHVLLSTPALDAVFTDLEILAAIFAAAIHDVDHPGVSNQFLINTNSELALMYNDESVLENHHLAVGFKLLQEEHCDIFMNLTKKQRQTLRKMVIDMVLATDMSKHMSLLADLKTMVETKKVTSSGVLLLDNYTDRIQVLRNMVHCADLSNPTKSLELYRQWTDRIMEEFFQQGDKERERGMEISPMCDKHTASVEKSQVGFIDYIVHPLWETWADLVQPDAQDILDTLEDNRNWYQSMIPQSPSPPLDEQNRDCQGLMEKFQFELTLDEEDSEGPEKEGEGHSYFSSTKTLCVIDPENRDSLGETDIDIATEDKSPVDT
As to the kind of experiment: In vitro PDE4B2 enzyme inhibitory activity (AMP-Glo). It counts as biochemical.

Setting [2] is: PDE4B2 enzyme inhibition, read-out: PDE4B2 IC50.
The mark [3] stands for this setting: read-out: IC50 values of PDE4B2 enzyme inhibition.

Where two headings read alike, the source gives them in different places. Bounds are passed on as bounds.

Procedure for PDE4B2: 2.1.1 Preparing stock solutions of compounds in DMSO: Compound powders were dissolved in 100% DMSO to produce 10 mM stock solutions, and oscillated in a shaker until the compounds were completely dissolved.
2.1.3 Preparing working stock solutions: a) A solution of Roflumilast (reference compound) in DMSO was diluted to 60 μM, and then serially diluted 4-fold into 10 concentration gradients. B) The solutions of the test compounds in DMSO were diluted to 200 μM, and then serially diluted 3-fold. C) A 200× positive control (60 μM Roflumilast) and a 200× vehicle control (100% DMSO) were prepared. D) The assay plate was centrifuged at 1000 rpm for 1 minute.
(1) 20 nL of compound dilution solutions were transferred with Echo 550 into each well of the assay plate.
(2) The assay plate was sealed and centrifuged at 1000 rpm for 1 minute.
(3) 2×PDE4B2/PDE4D2 was prepared in an ice-cold PDE assay buffer.
(4) 2 μL of 2×PDE4B2/PDE4D2 was added to each well of the assay plate prepared in step 2.
(5) The assay plate was sealed and allowed to equilibrate at room temperature for 10 minutes.
(6) 2× Cyclic-3′,5′-AMP was prepared in a PDE assay buffer.
7) 2 μL of 2× Cyclic-3′,5′-AMP (prepared in step 6) was added to each well of the assay plate (prepared in step 5) to initiate the reaction. The plate was incubated at room temperature for 60 minutes.
8) 4 μL AMP-Glo Reagent I was added, and the plate was incubated at room temperature for 60 minutes.
9) 8 μL AMP detection reagent was added. The plate was incubated at room temperature for 60 minutes.
10) The RLU signal was read on an Envision 2105 plate reader.

With `[O-][S+]1CCc2nc(N3Cc4ccc(Cl)cc4C3)nc(NC3(CO)CCC3)c21` (racemic) [Compound 25, (R/S)-2-(5-chloroisoindolin-2-yl)-4-((1-(hydroxymethyl)cyclobutyl)amino)-6,7-dihydrothieno[3,2-d]pyrimidine 5-oxide], in series [1] (IV, 2 mg/kg), the AUC(0-inf) amounted to 17600 ng·h/mL, the clearance is 2.4 mL/min/kg and the half-life is 5.01 h. In series [1] (PO, 10 mg/kg), the AUC(0-inf) was 23100 ng·h/mL, the Cmax came to 5950 ng/mL and the Tmax was 1.33 h. Further, the IC50 at PDE4B2 (setting [2]) lay in the range of 2 to 5 nM.

With `COc1ccc(C2(OC)CN(c3nc4c(c(NC5(CO)CCC5)n3)[S+]([O-])CC4)C2)cc1` (racemic) [Compound 100, (R/S)-4-((1-(hydroxymethyl)cyclobutyl)amino)-2-(3-methoxy-3-(4-methoxyphenyl)azetidin-1-yl)-6,7-dihydrothieno[3,2-d]pyrimidine 5-oxide], the IC50 on PDE4B2 (setting [2]) was ≤ 2 nM; on PDE4B2 (setting [3]), < 1 nM.

Consider `COC1(c2ccc(OC(F)F)cc2)CN(c2nc3c(c(NC4(CO)CCC4)n2)[S+]([O-])CC3)C1` (racemic) [Compound 105, (R/S)-2-(3-(4-(difluoromethoxy)phenyl)-3-methoxyazetidin-1-yl)-4-((1-(hydroxymethyl)cyclobutyl)amino)-6,7-dihydrothieno[3,2-d]pyrimidine 5-oxide], for which the IC50 was ≤ 2 nM at PDE4B2 (setting [2]) and < 1 nM at PDE4B2 (setting [3]).

`COC1(c2ccc(OCC3CC3)cc2)CN(c2nc3c(c(NC4(CO)CCC4)n2)[S+]([O-])CC3)C1` (racemic) [Compound 106, (R/S)-2-(3-(4-(cyclopropylmethoxy)phenyl)-3-methoxyazetidin-1-yl)-4-((1-(hydroxymethyl)cyclobutyl)amino)-6,7-dihydrothieno[3,2-d]pyrimidine 5-oxide]: the 50% inhibitory concentration (IC50) at PDE4B2 (setting [2]) was ≤ 2 nM.

As for `COC1(c2ccc(N3CCCC3)cc2)CN(c2nc3c(c(NC4(CO)CCC4)n2)[S+]([O-])CC3)C1` (racemic) [Compound 107, (R/S)-4-((1-(hydroxymethyl)cyclobutyl)amino)-2-(3-methoxy-3-(4-(pyrrolidin-1-yl)phenyl)azetidin-1-yl)-6,7-dihydrothieno[3,2-d]pyrimidine 5-oxide], the IC50 was ≤ 2 nM on PDE4B2 (setting [2]) and < 1 nM at PDE4B2 (setting [3]).

Regarding `COc1ccc(C2(OC)CN(c3nc4c(c(NC5CCOCC5)n3)[S+]([O-])CC4)C2)cc1` (racemic) [Compound 108, (R/S)-2-(3-methoxy-3-(4-methoxyphenyl)azetidin-1-yl)-4-((tetrahydro-2H-pyran-4-yl)amino)-6,7-dihydrothieno[3,2-d]pyrimidine 5-oxide], the figures for the IC50 at PDE4B2 (setting [2]) and at PDE4B2 (setting [3]) were ≤ 2 nM and < 1 nM, respectively.

In the case of `COC1(c2ccc(N(C)C)cc2)CN(c2nc3c(c(NC4(CO)CCC4)n2)[S+]([O-])CC3)C1` (racemic) [Compound 109, (R/S)-2-(3-(4-(dimethylamino)phenyl)-3-methoxyazetidin-1-yl)-4-((1-(hydroxymethyl)cyclobutyl)amino)-6,7-dihydrothieno[3,2-d]pyrimidine 5-oxide], the values for the IC50 on PDE4B2 (setting [2]) and on PDE4B2 (setting [3]) were ≤ 2 nM and < 1 nM, respectively.

Regarding `CNc1ccc(C2(OC)CN(c3nc4c(c(NC5(CO)CCC5)n3)[S+]([O-])CC4)C2)cc1` (racemic) [Compound 112, (R/S)-4-((1-(hydroxymethyl)cyclobutyl)amino)-2-(3-methoxy-3-(4-(methylamino)phenyl)azetidin-1-yl)-6,7-dihydrothieno[3,2-d]pyrimidine 5-oxide], on PDE4B2 (setting [2]), the IC50 is ≤ 2 nM.

With `[O-][S+]1CCc2nc(N3CCC(c4ncc(Cl)cn4)CC3)nc(NC3(CO)CCC3)c21` (centres unmarked) [Control 1, reference compound], in series [1] (IV, 2 mg/kg), the AUC(0-inf) was found to be 2900 ng·h/mL, the clearance worked out at 11.8 mL/min/kg and the half-life is 1.57 h. For the same compound, in series [1] (PO, 10 mg/kg), the AUC(0-inf) worked out at 12100 ng·h/mL, the Cmax amounted to 2250 ng/mL and the time of peak concentration (Tmax) worked out at 0.5 h. Further, the IC50 on PDE4B2 (setting [2]) is 20 to 50 nM.
